Legend:
Format in all cases: in vivo
corn (Zea mays) = assay: Test B pre-/postemergence plant response; conditions: 0 to 100 scale, 0 no effect, 100 complete control
Method in brief: (§1)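 Visual injury rating, 0 (no effect) to 100 (complete control), vs untreated controls after ~10 d greenhouse. Pre: directed soil spray after planting in loam/sand. Post: plants 2–10 cm, 1–2 leaf stage. Compound in non-phytotoxic solvent plus surfactant.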

[1] = test system: barnyardgrass (Echinochloa crus-galli); assay: Test B pre-/postemergence plant response
Method in brief: as §1

[2] = test system: wheat (Triticum aestivum); assay: Test B pre-/postemergence plant response; conditions: 0 to 100 scale, 0 no effect, 100 complete control
Method in brief: as §1

[3] = test system: giant foxtail (Setaria faberii); assay: Test B pre-/postemergence plant response
Method in brief: as §1

[4] = test system: pigweed (Amaranthus retroflexus); assay: Test B pre-/postemergence plant response
Method in brief: as §1

[5] = test system: johnsongrass (Sorghum halepense); assay: Test D pre-/postemergence plant response
Method in brief: (§2)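 Plants are held in a greenhouse 13 to 15 days after spraying, then injury is rated by eye relative to controls on a 0 to 100 scale. Treatments are preemergence on freshly sown loam/sand pots or postemergence at 1- to 4-leaf stage in peat-based medium; surfactant-containing solvent formulation.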

[6] = test system: blackgrass (Alopecurus myosuroides); assay: Test D pre-/postemergence plant response
Method in brief: as §2

[7] = test system: waterhemp (common waterhemp, Amaranthus rudis); assay: Test D pre-/postemergence plant response
Method in brief: as §2

[8] = test system: large (Lg) crabgrass (Digitaria sanguinalis); assay: Test D pre-/postemergence plant response
Method in brief: as §2

[9] = test system: morningglory (Ipomoea coccinea); assay: Test D pre-/postemergence plant response
Method in brief: as §2

[10] = test system: barnyardgrass (Echinochloa crus-galli); assay: Test D pre-/postemergence plant response
Method in brief: as §2

[11] = test system: yellow nutsedge (Cyperus esculentus); assay: Test D pre-/postemergence plant response
Method in brief: as §2

soybean (Glycine max) = assay: Test D pre-/postemergence plant response
Method in brief: as §2

[12] = test system: ragweed (common ragweed, Ambrosia elatior); assay: Test D pre-/postemergence plant response
Method in brief: as §2

[13] = test system: giant foxtail (Setaria faberii); assay: Test D pre-/postemergence plant response
Method in brief: as §2

[14] = test system: pigweed (Amaranthus retroflexus); assay: Test D pre-/postemergence plant response
Method in brief: as §2

[15] = 31 g ai/ha, Postemergence, 0 to 100 scale, 0 no effect, 100 complete control
[16] = 31 g ai/ha, Preemergence, 0 to 100 scale where 0 is no effect and 100 is complete control
[17] = 125 g ai/ha, postemergence, 0 to 100 scale, 0 no effect, 100 complete control
[18] = Preemergence, 125 g ai/ha, 0 to 100 scale where 0 is no effect and 100 is complete control
[19] = Postemergence, 16 g ai/ha, scale 0 to 100 (0 no effect, 100 complete control)
[20] = Postemergence, 31 g ai/ha, scale 0 to 100 (0 no effect, 100 complete control)
[21] = Postemergence, 62 g ai/ha, scale 0 to 100, 0 no effect, 100 complete control
[22] = Postemergence, 125 g ai/ha, scale 0 to 100, 0 no effect, 100 complete control
[23] = Preemergence, 16 g ai/ha, scale 0 to 100 (0 no effect, 100 complete control)
[24] = Preemergence, 31 g ai/ha, scale 0 to 100 (0 no effect, 100 complete control)
[25] = Preemergence, 62 g ai/ha, scale 0 to 100 (0 no effect, 100 complete control)

Fc1ccc(Oc2ncc(Cl)cn2)c(-c2cc(C(F)F)on2)c1F [Compound 113]
65: Plant response rating, Soybean (soybean (Glycine max); [21])
100: Plant response rating, Barnyardgrass [1, 18] | Plant response rating, Foxtail, Giant [3, 18] | Plant response rating, Pigweed [4, 15] | Plant response rating, Pigweed [4, 16] | Plant response rating, Pigweed [4, 17] | Plant response rating (scale 0 to 100), Johnsongrass ([5]; Preemergence, 125 g ai/ha) | Plant response rating (scale 0 to 100), Waterhemp ([7]; Preemergence, 125 g ai/ha) | Plant response rating, Waterhemp [7, 23] | Plant response rating, Waterhemp [7, 24] | Plant response rating, Waterhemp [7, 25] | Plant response rating (scale 0 to 100), Crabgrass, Large ([8]; Preemergence, 125 g ai/ha) | Plant response rating, Crabgrass, Large [8, 24] | Plant response rating, Crabgrass, Large [8, 25] | Plant response rating (scale 0 to 100), Barnyardgrass ([10]; Preemergence, 125 g ai/ha) | Plant response rating (scale 0 to 100), Foxtail, Giant ([13]; Preemergence, 125 g ai/ha) | Plant response rating, Foxtail, Giant [13, 24] | Plant response rating, Foxtail, Giant [13, 25] | Plant response rating, Pigweed [14, 22] | Plant response rating (scale 0 to 100), Pigweed ([14]; Preemergence, 125 g ai/ha) | Plant response rating, Pigweed [14, 23] | Plant response rating, Pigweed [14, 24] | Plant response rating, Pigweed [14, 25]
75: Morningglory plant response rating [9, 20] | Plant response rating, Soybean (soybean (Glycine max); [22])
25: Plant response rating, Crabgrass, Large [8, 21] | Plant response rating, Crabgrass, Large [8, 22] | Plant response rating, Barnyardgrass [10, 22]
80: Plant response rating (scale 0 to 100), Blackgrass ([6]; Preemergence, 125 g ai/ha) | Waterhemp plant response rating [7, 20] | Plant response rating, Morningglory [9, 22] | Soybean plant response rating (soybean (Glycine max); [19]) | Plant response rating (scale 0 to 100), Soybean (soybean (Glycine max); Preemergence, 125 g ai/ha) | Ragweed plant response rating [12, 19]
85: Waterhemp plant response rating [7, 19] | Plant response rating, Waterhemp [7, 21] | Morningglory plant response rating [9, 19] | Plant response rating, Morningglory [9, 21] | Plant response rating, Morningglory [9, 25] | Plant response rating, Ragweed [12, 25] | Plant response rating, Foxtail, Giant [13, 23]
0: Plant response rating, Wheat ([2]; 31 g ai/ha, Postemergence) | Plant response rating, Nutsedge, Yellow [11, 23]
35: Plant response rating, Morningglory [9, 24] | Plant response rating, Soybean (soybean (Glycine max); [23])
60: Plant response rating, Barnyardgrass [1, 15] | Plant response rating, Foxtail, Giant [3, 15] | Plant response rating (scale 0 to 100), Nutsedge, Yellow ([11]; Preemergence, 125 g ai/ha) | Ragweed plant response rating [12, 20]
10: Plant response rating, Corn (corn (Zea mays); 31 g ai/ha, Postemergence) | Plant response rating, Wheat ([2]; 125 g ai/ha, postemergence) | Plant response rating, Johnsongrass [5, 22] | Plant response rating, Johnsongrass [5, 23] | Plant response rating, Blackgrass [6, 21] | Plant response rating, Blackgrass [6, 23] | Crabgrass, Large plant response rating [8, 19] | Barnyardgrass plant response rating [10, 19] | Plant response rating, Nutsedge, Yellow [11, 24] | Plant response rating, Foxtail, Giant [13, 21] | Plant response rating, Foxtail, Giant [13, 22]
5: Johnsongrass plant response rating [5, 19] | Johnsongrass plant response rating [5, 20] | Plant response rating, Johnsongrass [5, 21] | Blackgrass plant response rating [6, 19] | Nutsedge, Yellow plant response rating [11, 19] | Nutsedge, Yellow plant response rating [11, 20] | Plant response rating, Nutsedge, Yellow [11, 21] | Foxtail, Giant plant response rating [13, 19] | Foxtail, Giant plant response rating [13, 20]
70: Plant response rating, Barnyardgrass [1, 16] | Plant response rating, Johnsongrass [5, 24] | Plant response rating, Blackgrass [6, 25]
90: Plant response rating, Barnyardgrass [1, 17] | Plant response rating, Foxtail, Giant [3, 16] | Plant response rating, Foxtail, Giant [3, 17] | Plant response rating, Johnsongrass [5, 25] | Plant response rating, Waterhemp [7, 22] | Plant response rating, Soybean (soybean (Glycine max); [25]) | Plant response rating, Ragweed [12, 21] | Plant response rating, Ragweed [12, 22] | Plant response rating (scale 0 to 100), Ragweed ([12]; Preemergence, 125 g ai/ha) | Pigweed plant response rating [14, 19] | Pigweed plant response rating [14, 20]
30: Plant response rating, Corn (corn (Zea mays); 125 g ai/ha, postemergence) | Plant response rating, Barnyardgrass [10, 23]
55: Soybean plant response rating (soybean (Glycine max); [20]) | Plant response rating, Ragweed [12, 24]
15: Blackgrass plant response rating [6, 20] | Barnyardgrass plant response rating [10, 20] | Plant response rating, Nutsedge, Yellow [11, 22] | Plant response rating, Nutsedge, Yellow [11, 25]
95: Plant response rating (scale 0 to 100), Morningglory ([9]; Preemergence, 125 g ai/ha) | Plant response rating, Barnyardgrass [10, 24] | Plant response rating, Pigweed [14, 21]
20: Crabgrass, Large plant response rating [8, 20] | Plant response rating, Morningglory [9, 23] | Plant response rating, Barnyardgrass [10, 21]
98: Plant response rating, Crabgrass, Large [8, 23] | Plant response rating (scale 0 to 100), Barnyardgrass ([10]; Preemergence, 62 g ai/ha)
40: Plant response rating, Blackgrass [6, 22] | Plant response rating, Blackgrass [6, 24] | Plant response rating, Soybean (soybean (Glycine max); [24]) | Plant response rating, Ragweed [12, 23]

FC(Cl)c1cc(-c2ccccc2Oc2ncc(Cl)cn2)no1 (centres unmarked) [Compound 116]
35: Plant response rating, Blackgrass [6, 22] | Ragweed plant response rating [12, 20]
100: Plant response rating, Pigweed [4, 15] | Plant response rating, Pigweed [4, 17] | Plant response rating, Waterhemp [7, 22]
75: Plant response rating, Ragweed [12, 22] | Pigweed plant response rating [14, 19] | Pigweed plant response rating [14, 20]
10: Plant response rating, Barnyardgrass [1, 15] | Plant response rating, Wheat ([2]; 31 g ai/ha, Postemergence) | Johnsongrass plant response rating [5, 19] | Morningglory plant response rating [9, 20] | Plant response rating, Morningglory [9, 21] | Plant response rating, Nutsedge, Yellow [11, 21] | Plant response rating, Foxtail, Giant [13, 21]
30: Plant response rating, Barnyardgrass [1, 17] | Plant response rating, Barnyardgrass [1, 18] | Plant response rating, Morningglory [9, 22] | Plant response rating, Barnyardgrass [10, 22] | Plant response rating, Soybean (soybean (Glycine max); [21])
20: Plant response rating, Corn (corn (Zea mays); 31 g ai/ha, Postemergence) | Plant response rating, Wheat ([2]; 125 g ai/ha, postemergence) | Plant response rating, Foxtail, Giant [3, 15] | Johnsongrass plant response rating [5, 20] | Plant response rating, Johnsongrass [5, 21] | Plant response rating, Barnyardgrass [10, 21]
60: Plant response rating, Ragweed [12, 21] | Plant response rating, Foxtail, Giant [13, 22]
90: Plant response rating, Foxtail, Giant [3, 17] | Plant response rating, Foxtail, Giant [3, 18] | Waterhemp plant response rating [7, 20] | Plant response rating, Waterhemp [7, 21] | Plant response rating, Pigweed [14, 21] | Plant response rating, Pigweed [14, 22]
15: Morningglory plant response rating [9, 19]
95: Plant response rating, Soybean (soybean (Glycine max); [22])
25: Plant response rating, Crabgrass, Large [8, 21] | Plant response rating, Nutsedge, Yellow [11, 22]
40: Plant response rating, Corn (corn (Zea mays); 125 g ai/ha, postemergence) | Plant response rating, Foxtail, Giant [3, 16] | Plant response rating, Crabgrass, Large [8, 22] | Soybean plant response rating (soybean (Glycine max); [19]) | Ragweed plant response rating [12, 19]
55: Soybean plant response rating (soybean (Glycine max); [20])
0: Plant response rating, Barnyardgrass [1, 16] | Blackgrass plant response rating [6, 19]
70: Plant response rating, Pigweed [4, 16] | Waterhemp plant response rating [7, 19]
5: Blackgrass plant response rating [6, 20] | Plant response rating, Blackgrass [6, 21] | Crabgrass, Large plant response rating [8, 19] | Crabgrass, Large plant response rating [8, 20] | Barnyardgrass plant response rating [10, 19] | Barnyardgrass plant response rating [10, 20] | Nutsedge, Yellow plant response rating [11, 19] | Nutsedge, Yellow plant response rating [11, 20] | Foxtail, Giant plant response rating [13, 19] | Foxtail, Giant plant response rating [13, 20]

Source: patent US10131652B2, “Pyrimidinyloxy benzene derivatives as herbicides” (E. I. DU PONT DE NEMOURS AND COMPANY, priority 2014, dated 2018)
